Reference: US12458538B2, “Functional wound healing dressings” (Ambient Biosciences, Inc., priority 2018, dated 2025)
“Also recorded” adds a separate entry of the source.

How the values were obtained:
[1] = Activity of vitrified insulin after reconstitution; conditions: reconstitution by contact with water or a body fluid
[2] = test system: C57/BL6J mouse keratinocytes; assay: Scratch wound healing assay; assay type: cell-based
Description: (§1) Two established cell culture models of transwell migration and a scratch wound healing model with freshly isolated C57/BL6J mouse keratinocytes were used. First, the keratinocyte cultures were established by enzymatic separation of keratinocytes from the epidermal layer of mouse skin using a dispase (for isolating epidermal later of skin) and trypsin (for isolating keratinocytes from the epidermis) under gentle agitation. The collected cells were grown in SFM-keratinocyte medium (Life Technologies).
To assess the ability of keratinocytes to migrate and heal wound gaps, scratch wounds of uniform dimensions were created across keratinocyte monolayers and the cultures were left for healing in the presence or absence of VEGF or VEGF inhibitor.

[3] = test system: C57/BL6J mouse keratinocytes; assay: Transwell migration assay; assay type: cell-based
Description: as §1
To assess the ability of keratinocytes to migrate under the influence of VEGF, cells were trypsinized, collected by centrifugation and added to the upper chamber of transwell inserts while the No VEGF control or VEGF or VEGF+VEGF inhibitor were added to serum free medium placed in the lower chamber. The cells were allowed to migrate under normal growth conditions. At the end of 24 h, the cells that migrated under the influence of vehicle control or VEGF in lower chamber were counted visually and expressed as percent cell migration.

[4] = test system: TNFα, COL1A1, DSTN, TGFβ, IL-6 and COL3A1 expression in dermal fibroblasts; assay: LPS-induced scar-forming gene expression assay of dermal fibroblasts (qPCR); assay type: cell-based; conditions: LPS 500 ng/ml 3 days; VEGF 10 ng/ml; + control ideal storage, others exposed at 55° C. for 15 days
Description: Dermal fibroblasts were treated with lipopolysaccharide LPS (500 ng/ml) or vehicle PBS (No LPS control) for 3 days in the presence of vitrified VEGF (10 ng/ml) that was tested for stability against exposure to 55° C. from days 1-15.
LPS-treated cells exposed to VEGF (10 ng/ml) that underwent thermo-destabilization in the absence of vitrification served as negative control and the cells treated with VEGF that was subjected to neither vitrification nor destabilization served as positive control.
LPS-induced scar-forming gene expression profiles of dermal fibroblasts namely TNFα, COL1A1, DSTN, TGFβ, IL-6 and COL3A1 were measured by quantitative real-time PCR (qPCR), normalized to the expression of β-actin and expressed relative to the levels measured in No LPS control.

| Substance | activity after reconstitution [1] | number of cells that migrated into the scratch wound area ([2]; n=3) | keratinocyte scratch wound healing ([2]; scratch wounds on confluent keratinocyte monolayers) | migration of keratinocytes, transwell ([3]; 24 h, serum free medium in lower chamber) | quantification of cell numbers in the transwell migration assay ([3]; n=3) | LPS-induced scar-forming gene expression [4] |
| --- | --- | --- | --- | --- | --- | --- |
| vitrified insulin: insulin vitrified by the processes described, e.g. electrospun with pullulan and trehalose | indistinguishable from fresh insulin | – | – | – | – | – |
| vascular endothelial growth factor [VEGF] | – | dramatic induction of keratinocyte migration | promote a dynamic healing in the scratch wound area; also recorded: stimulates migration of keratinocytes | stimulates migration of keratinocytes | dramatic induction of keratinocyte migration | strong suppressive effect on scar forming genes |
